Measured values published in PubChem BioAssay AID248 (DTP/NCI, 2004).
Toxic doses and inconclusive results are not listed. Rule as the data show it: active = T/C of 150% or more; inactive = T/C below 125%. Square brackets hold non-standard residues; d marks the D form. Peptide text beside a SMILES is read from it. * marks the point of attachment. ξ: configuration not given here. ξF = NC(Cc1ccccc1)C(=O)O; Cbz = O=C(OCc1ccccc1)*; OBn = c1ccc(CO*)cc1

System: L1210 leukemia ip in BDF1 mice, survival T/C
Assay: NCI In Vivo Anticancer Drug Screen. Data for tumor model L1210 Leukemia (intraperitoneal) in B6D2F1 (BDF1) mice
Settings: endpoint: mean survival time, higher = longer survival
In short: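 Survival endpoint. Drug-treated group vs vehicle group, expressed as T divided by C. Tumor passaged by transplantation.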

[1] = dose: 100.0 mg/kg/injection, schedule: Q01DX009 (ip), vehicle: Klucel (hydroxypropylcellulose) (HPC)
[2] = dose: 100.0 mg/kg/injection, schedule: Q04DX002 (ip), vehicle: Klucel (hydroxypropylcellulose) (HPC)
[3] = dose: 200.0 mg/kg/injection, schedule: Q01DX009 (ip), vehicle: Klucel (hydroxypropylcellulose) (HPC)
[4] = dose: 200.0 mg/kg/injection, schedule: Q04DX002 (ip), vehicle: Klucel (hydroxypropylcellulose) (HPC)
[5] = dose: 400.0 mg/kg/injection, schedule: Q01DX009 (ip), vehicle: Klucel (hydroxypropylcellulose) (HPC)
[6] = dose: 400.0 mg/kg/injection, schedule: Q04DX002 (ip), vehicle: Klucel (hydroxypropylcellulose) (HPC)
[7] = dose: 100.0 mg/kg/injection, schedule: Q01DX001 (ip), vehicle: saline
[8] = dose: 100.0 mg/kg/injection, schedule: Q04DX003 (ip), vehicle: saline with Tween-80
[9] = dose: 200.0 mg/kg/injection, schedule: Q04DX003 (ip), vehicle: saline with Tween-80
[10] = dose: 400.0 mg/kg/injection, schedule: Q04DX003 (ip), vehicle: saline with Tween-80
[11] = dose: 50.0 mg/kg/injection, schedule: Q04DX003 (ip), vehicle: saline
[12] = dose: 100.0 mg/kg/injection, schedule: Q04DX003 (ip), vehicle: saline
[13] = dose: 200.0 mg/kg/injection, schedule: Q04DX003 (ip), vehicle: saline
[14] = dose: 400.0 mg/kg/injection, schedule: Q04DX003 (ip), vehicle: saline

Measured: T/C

CC12CCC(C1)C(C)(C)/C2=N\O (configuration not stated)
inactive: [1] 96 % of control | [2] 100 % of control | [3] 88 % of control | [4] 96 % of control | [5] 92 % of control | [6] 96 % of control

Cc1ccc(S(=O)(=O)NC(=O)c2c3ccccc3cc3ccccc23)cc1
inactive: dose: 100.0 mg/kg/injection, schedule: Q01DX001 (ip), vehicle: acetone 104 % of control | dose: 200.0 mg/kg/injection, schedule: Q01DX001 (ip), vehicle: acetone 104 % of control | dose: 400.0 mg/kg/injection, schedule: Q01DX001 (ip), vehicle: acetone 96 % of control

O=[N+]([O-])c1ccc(N=Cc2ccccc2)c(O)c1
inactive: [7] 93 % of control | dose: 200.0 mg/kg/injection, schedule: Q01DX001 (ip), vehicle: saline 98 % of control | dose: 400.0 mg/kg/injection, schedule: Q01DX001 (ip), vehicle: saline 98 % of control

CC(C)CNc1ccc(S(=O)(=O)c2ccc(NCC(C)C)c([N+](=O)[O-])c2)cc1[N+](=O)[O-]
inactive: dose: 3.12 mg/kg/injection, schedule: Q01DX009 (ip), vehicle: DMSO 92 % of control | dose: 6.25 mg/kg/injection, schedule: Q01DX009 (ip), vehicle: DMSO 89 % of control | dose: 12.5 mg/kg/injection, schedule: Q01DX009 (ip), vehicle: DMSO 105 % of control | dose: 25.0 mg/kg/injection, schedule: Q01DX005 (ip), vehicle: DMSO 92 % of control | dose: 25.0 mg/kg/injection, schedule: Q01DX009 (ip), vehicle: DMSO 88 % of control | dose: 50.0 mg/kg/injection, schedule: Q01DX005 (ip), vehicle: DMSO 92 % of control | dose: 100.0 mg/kg/injection, schedule: Q01DX005 (ip), vehicle: DMSO 90 % of control | dose: 100.0 mg/kg/injection, schedule: Q04DX002 (ip), vehicle: DMSO 96 % of control | dose: 200.0 mg/kg/injection, schedule: Q04DX002 (ip), vehicle: DMSO 111 % of control | dose: 400.0 mg/kg/injection, schedule: Q04DX002 (ip), vehicle: DMSO 107 % of control

CC(=Nc1cc(C)c(C)cc1C)c1c(O)cc(C)oc1=O
inactive: [1] 93 % of control | [2] 98 % of control | [3] 98 % of control | [4] 98 % of control | [5] 87 % of control | [6] 98 % of control

CCOC(=O)NCc1ccco1
inactive: dose: 5.0 mg/kg/injection, schedule: Q01DX009 (ip), vehicle: saline 89 % of control | dose: 10.0 mg/kg/injection, schedule: Q01DX009 (ip), vehicle: saline 109 % of control | dose: 20.0 mg/kg/injection, schedule: Q01DX009 (ip), vehicle: saline 93 % of control

CCCCCCCCCC(=O)NN1CCOCC1
inactive: dose: 100.0 mg/kg/injection, schedule: Q01DX009 (ip), vehicle: saline with Tween-80 105 % of control | dose: 200.0 mg/kg/injection, schedule: Q01DX009 (ip), vehicle: saline with Tween-80 89 % of control | dose: 400.0 mg/kg/injection, schedule: Q01DX009 (ip), vehicle: saline with Tween-80 89 % of control

CC(=O)c1ccc(Br)c2ccccc12
inactive: dose: 50.0 mg/kg/injection, schedule: Q04DX003 (ip), vehicle: saline with Tween-80 95 % of control | [8] 100 % of control | [9] 97 % of control | [10] 94 % of control

O/N=C(/C(=N/O)c1ccccc1)c1ccccc1.O/N=C(/C(=N/O)c1ccccc1)c1ccccc1.[Cl][Rh][Cl]
inactive: dose: 50.0 mg/kg/injection, schedule: Q01DX009 (ip), vehicle: saline 94 % of control | [11] 95 % of control | dose: 100.0 mg/kg/injection, schedule: Q01DX009 (ip), vehicle: saline 89 % of control | [12] 95 % of control | dose: 200.0 mg/kg/injection, schedule: Q01DX009 (ip), vehicle: saline 95 % of control | [13] 94 % of control | dose: 400.0 mg/kg/injection, schedule: Q01DX009 (ip), vehicle: saline 97 % of control | [14] 94 % of control

CCC(C1CCC(O)CC1)C(CC)C1CCC(c2ccc(=O)oc2)C1 (configuration not stated)
inactive: dose: 25.0 mg/kg/injection, schedule: Q04DX003 (ip), vehicle: saline 100 % of control | [11] 103 % of control | [12] 103 % of control

O=C(CNC(=O)OCc1ccccc1)NC(Cc1ccccc1)C(=O)OCc1ccccc1 (stereo not drawn) (Cbz-Gly-[ξF]-OBn)
inactive: [8] 101 % of control | [9] 103 % of control | [10] 95 % of control

O=S(=O)(Cc1cccc(Cl)c1)c1ccccc1
inactive: [2] 96 % of control | [4] 107 % of control | [6] 104 % of control

NC(C(=O)O)C(O)C(=O)O (configuration not stated)
inactive: dose: 75.0 mg/kg/injection, schedule: Q04DX003 (ip), vehicle: saline 98 % of control | dose: 150.0 mg/kg/injection, schedule: Q04DX003 (ip), vehicle: saline 98 % of control | dose: 300.0 mg/kg/injection, schedule: Q04DX003 (ip), vehicle: saline 96 % of control

CCOC(=O)c1sc(SSc2nc(C)c(C(=O)OCC)s2)nc1C
inactive: [8] 102 % of control | [9] 94 % of control | [10] 91 % of control

N#CC1(Nc2ccc(-c3ccc(Cl)cc3)cc2)CCCC1
inactive: dose: 50.0 mg/kg/injection, schedule: Q01DX001 (ip), vehicle: carboxymethylcellulose (CMC) 91 % of control | dose: 100.0 mg/kg/injection, schedule: Q01DX001 (ip), vehicle: carboxymethylcellulose (CMC) 91 % of control | dose: 200.0 mg/kg/injection, schedule: Q01DX001 (ip), vehicle: carboxymethylcellulose (CMC) 87 % of control

CC(CCN=Cc1ccccc1O)N=Cc1ccccc1O (configuration not stated)
inactive: dose: 50.0 mg/kg/injection, schedule: Q01DX001 (ip), vehicle: other 107 % of control | dose: 100.0 mg/kg/injection, schedule: Q01DX001 (ip), vehicle: other 89 % of control | dose: 200.0 mg/kg/injection, schedule: Q01DX001 (ip), vehicle: other 97 % of control | dose: 400.0 mg/kg/injection, schedule: Q01DX001 (ip), vehicle: other 95 % of control

Nc1ccc([I+]c2ccccc2)cc1
inactive: dose: 50.0 mg/kg/injection, schedule: Q01DX001 (ip), vehicle: saline 101 % of control | [7] 103 % of control

CC(=O)c1csc2ccccc12
inactive: dose: 12.5 mg/kg/injection, schedule: Q01DX009 (ip), vehicle: Klucel (hydroxypropylcellulose) (HPC) 106 % of control | dose: 25.0 mg/kg/injection, schedule: Q01DX009 (ip), vehicle: Klucel (hydroxypropylcellulose) (HPC) 101 % of control | dose: 50.0 mg/kg/injection, schedule: Q01DX009 (ip), vehicle: Klucel (hydroxypropylcellulose) (HPC) 106 % of control

O=C(Nc1cccc2ccccc12)Oc1ccc2ccccc2c1
inactive: [2] 96 % of control | [4] 93 % of control | [6] 116 % of control

CN(C)c1ccc(/C(=C(\c2ccccc2)c2ccc(N(C)C)cc2)c2ccccc2)cc1
inactive: dose: 100.0 mg/kg/injection, schedule: Q04DX003 (ip), vehicle: Klucel (hydroxypropylcellulose) (HPC) 90 % of control | dose: 200.0 mg/kg/injection, schedule: Q04DX003 (ip), vehicle: Klucel (hydroxypropylcellulose) (HPC) 93 % of control | dose: 400.0 mg/kg/injection, schedule: Q04DX003 (ip), vehicle: Klucel (hydroxypropylcellulose) (HPC) 89 % of control

NCCc1ccc(O)c(CO)c1
inactive: dose: 100.0 mg/kg/injection, schedule: Q04DX002 (ip), vehicle: saline 105 % of control | dose: 200.0 mg/kg/injection, schedule: Q04DX002 (ip), vehicle: saline 86 % of control | dose: 400.0 mg/kg/injection, schedule: Q04DX002 (ip), vehicle: saline 105 % of control

CCOC(=O)C(OCC)c1ccccc1 (configuration not stated)
inactive: [12] 97 % of control | [13] 101 % of control | [14] 89 % of control

CCCCOC(=O)c1ccc(NC(=O)Nc2c(C)cccc2C)cc1
inactive: dose: 100.0 mg/kg/injection, schedule: Q01DX009 (ip), vehicle: other 98 % of control | dose: 200.0 mg/kg/injection, schedule: Q01DX009 (ip), vehicle: other 89 % of control | dose: 400.0 mg/kg/injection, schedule: Q01DX009 (ip), vehicle: other 89 % of control

[CH3][Sn]([Br])([Br])[CH2]CCCBr
inactive: dose: 1.56 mg/kg/injection, schedule: Q01DX009 (ip), vehicle: saline 103 % of control | dose: 3.12 mg/kg/injection, schedule: Q01DX009 (ip), vehicle: saline 112 % of control | dose: 6.25 mg/kg/injection, schedule: Q01DX009 (ip), vehicle: saline 100 % of control

C=CCCCCCCCCC(=O)NCc1ccncc1
inactive: [8] 90 % of control
